Results from patent publication US5466675A, “Immunological activity of rhamnolipids” (priority 1992, dated 1995).
Read-outs that look alike come from different tables or passages of the source.

How the values were obtained:
elastase = experiment: enzyme inhibition, elastase; format: biochemical
Procedure: (§1) Rhamnolipid (II) was tested in vitro against a wide array of enzymes.
(§2) All enzyme assays were done spectrophotometrically by computer linked automatic microplate reader (Labsystem Multiskan) and Diode Array spectrophotometer (Perkin Elmer).

trypsin = experiment: enzyme inhibition, trypsin; format: biochemical
Procedure: as §1
The following enzymes were inhibited at the various rhamnolipid concentrations indicated:
as §2

Escherichia coli = experiment: minimum inhibitory concentration, Escherichia coli; format: cell-based; conditions: in tested medium
From the text: (§3) The Minimum inhibitory concentration (MIC) of Rhamnolipid II for Candida albicans, Escherichia coli, Staphylococcus aureus and Pseudomonas aeruginosa was >0.5% in tested medium.

P59fyn Tyrosine Kinase = P59fyn Tyrosine Kinase (Homo sapiens, UniProt P06241); experiment: enzyme inhibition, p59fyn tyrosine kinase; format: biochemical; conditions: 0.5% DMSO
Chain of P59fyn Tyrosine Kinase (P06241 whole entry): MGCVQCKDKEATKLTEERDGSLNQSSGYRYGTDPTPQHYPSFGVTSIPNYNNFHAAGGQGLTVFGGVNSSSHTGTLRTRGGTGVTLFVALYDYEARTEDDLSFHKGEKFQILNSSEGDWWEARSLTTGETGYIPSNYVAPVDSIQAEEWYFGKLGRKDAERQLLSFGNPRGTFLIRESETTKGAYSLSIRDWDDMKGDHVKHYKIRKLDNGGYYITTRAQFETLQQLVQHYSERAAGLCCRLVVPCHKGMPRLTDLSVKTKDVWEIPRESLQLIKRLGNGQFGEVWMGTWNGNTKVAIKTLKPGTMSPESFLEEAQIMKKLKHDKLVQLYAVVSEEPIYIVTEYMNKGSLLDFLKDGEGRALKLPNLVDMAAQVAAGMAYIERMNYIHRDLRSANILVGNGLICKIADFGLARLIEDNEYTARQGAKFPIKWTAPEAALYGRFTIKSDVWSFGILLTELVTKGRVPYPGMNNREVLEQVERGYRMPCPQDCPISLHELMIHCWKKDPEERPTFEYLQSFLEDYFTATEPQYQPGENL
Procedure: as §1, §2

patients = conditions: human, in vivo
From the text: Blood samples for lab tests were taken from all twelve patients on the first and last day of treatment.

[1] = tested on: A431 human epidermal cells; experiment: A431 cell DNA synthesis ([3H] thymidine incorporation); format: cell-based; conditions: for inhibition of DNA synthesis: absence of serum growth factors; for activity at 1 µg/mL / activity at 10 µg/mL / activity at 100 µg/mL: Homo sapiens, read-out: DNA synthesis, % placebo
Procedure: A431 cells were cultured for 24 h in microtitter platesm, with serum free medium or in the presence of serum with rhamnolipid. Then, [^3 H] thymidine was added and cells were harvested after 48 h; [^3 H] incorporated into DNA was determined.

[2] = tested on: measles edmonston A virus; experiment: effect on viruses, measles edmonston A; format: cell-based; conditions: concentrations ≤100 ug/ml
mice C57B1/6 = experiment: range-finding study phase (five doses per five days, one dose per day)
herpes simplex virus = experiment: effect on viruses, herpes simplex; format: cell-based; conditions: concentrations ≤100 ug/ml
Procedure: Tests were performed according to D. A. Vanden Berghe et al., Inst. Pasteur 84,101 (1986). Rhamnolipid (II) was toxic for VERO cells in concentrations ≥200 ug/ml, and cytotoxic on MT4 cells in concentrations >169.40 ug/ml.

Staphylococcus aureus = experiment: minimum inhibitory concentration, Staphylococcus aureus; format: cell-based; conditions: in tested medium
From the text: as §3

Candida albicans = experiment: immunomodulation: infection with Candida albicans; format: in vivo, mouse (ICR, female); conditions: for Survivor No.: n = 10
Procedure: The test compound or vehicle was administered i.p. to groups of 10 mice 1 hour before IV, challenge with suspension of C. albicans sufficient to result in 90 to 100% mortality within 10 days in the vehicle treated control group. A greater than 30 percent survival for any treated group is considered very significant, and possibly a result of immunomodulation, while an increase of 20% is considered a moderate immunomodulation activity.

[3] = tested on: B-cells isolated from mouse spleens; experiment: B-lymphocyte proliferation; format: cell-based; conditions: B-cell, 0.5% DMSO, read-out: % Stimulation (+)/Suppression (-)
Procedure: Procedure: B-cells were isolated from mouse spleens using conventional procedures, and suspended in DMEM. 10^6 cells/ml were incubated overnight at 37° C. to assess stimulation (positive score, related to 1 ug/ml lipopolysaccharide) or suppression (negative score, related to blank control) of cell proliferation. The test substance was evaluated under these conditions at 10, 1, 0.1, 0.01 and 0.001 uM. After overnight incubation, 2 uCi [^3 H] thymidine incorporation was assessed by liquid scintillation counting.

P561ek Tyrosine Kinase = P561ek Tyrosine Kinase (Homo sapiens, UniProt P06239); experiment: enzyme inhibition, p56lck tyrosine kinase; format: biochemical; conditions: 0.5% DMSO
Chain of P561ek Tyrosine Kinase (P06239 whole entry): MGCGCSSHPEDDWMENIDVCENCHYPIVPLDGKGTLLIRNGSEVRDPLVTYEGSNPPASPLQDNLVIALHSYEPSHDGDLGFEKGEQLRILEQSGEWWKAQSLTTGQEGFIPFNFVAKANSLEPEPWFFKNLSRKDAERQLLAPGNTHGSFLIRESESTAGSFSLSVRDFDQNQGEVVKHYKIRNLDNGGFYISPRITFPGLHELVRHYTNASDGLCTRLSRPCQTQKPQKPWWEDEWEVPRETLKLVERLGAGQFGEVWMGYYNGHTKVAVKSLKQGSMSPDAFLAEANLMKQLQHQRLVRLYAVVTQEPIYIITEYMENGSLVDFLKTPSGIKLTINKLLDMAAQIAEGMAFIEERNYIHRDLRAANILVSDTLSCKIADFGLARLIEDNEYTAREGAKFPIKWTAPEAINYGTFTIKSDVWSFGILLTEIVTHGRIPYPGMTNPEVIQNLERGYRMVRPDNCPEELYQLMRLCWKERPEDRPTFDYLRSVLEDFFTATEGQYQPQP
Procedure: as §1, §2

[4] = tested on: oxazolone-induced delayed type hypersensitivity; experiment: immunosuppression (cellular): oxazolone-induced delayed type hypersensitivity; format: in vivo, mouse (ICR, female); conditions: for Swelling (R -L) / ear thickness, Left Ear (No Oxa.) / ear thickness, Right Ear (24 hrs Oxa.): X +/- SEM
Procedure: The shaved abdominal surface of groups of 5 mice were sensitized by application of 0.1 ml of 5% oxazolone. The test substance was administered i.p after 1 hour and then daily for 5 consecutive doses. After an additional 4 days, the animals were challenged by application of 25 ul of 5% oxazolone to the right ear. Twenty-four hours later, ear thickness was measured with a Dyer Model micrometer gauge.
A 50 percent or greater decrease in drug-treated versus control animals is considered significant immunosuppressant activity.

[5] = five doses per five days, intraperitoneal

`CCCCCCCC(CC(=O)O)OC(=O)CC(CCCCCCC)O[C@@H]1O[C@@H](C)[C@H](O)[C@@H](O)[C@H]1O[C@@H]1O[C@@H](C)[C@H](O)[C@@H](O)[C@H]1O` (stereo partly drawn) [Rhamnolipid (II), (alpha-L-rhamnopyranosyl-(1,2)alpha-L-rhamnopyranosyl)-3-hydroxydecanoyl-3-hydroxydecanoic acid] was tested, and the effect on enzyme (elastase) was “no effect”, the “concentration at which the enzyme was inhibited” value (trypsin) was 1 mg/mL and the “Minimum inhibitory concentration (MIC)” value (Escherichia coli) was greater than 0.5%. The inhibition at 0.01 µM (P59fyn Tyrosine Kinase; 0.01 μM) was 1%, the inhibition at 1 µM (P59fyn Tyrosine Kinase; 1 μM) was 0% and the inhibition at 100 µM (P59fyn Tyrosine Kinase; 100 μM) was 15%. The “lab tests of blood samples” value (patients) was “no altered results of the tests were observed”, the “inhibition of DNA synthesis” value ([1]; 0.1 mg/ml) was “completely inhibited” and the “inhibition of DNA synthesis” value ([1]; 0.1 mg/ml, listed as rhamnolipid II) was “total inhibition”. For the same compound, the “DNA synthesis [3H] Thy inc.” value ([1]; 10 (v/v) % FCS, 0.001 mg/ml) was 35400 +/- 2786 dpm, the “DNA synthesis [3H] Thy inc.” value ([1]; 10 (v/v) % FCS, 0.01 mg/ml) was 31273 +/- 2028 dpm and the “DNA synthesis [3H] Thy inc.” value ([1]; 10 (v/v) % FCS, 0.1 mg/ml) was 37055 +/- 1881 dpm. It also gave an activity at 1 µg/mL ([1]; A-431, 10 (v/v) % FCS, 0.001 mg/ml) of 106 ± 8%, an activity at 10 µg/mL ([1]; A-431, 10 (v/v) % FCS, 0.01 mg/ml) of 94 ± 6% and an activity at 100 µg/mL ([1]; A-431, 10 (v/v) % FCS, 0.1 mg/ml) of 111 ± 6%. For the same compound, the activity at 1 µg/mL ([1]; A-431, serum free medium, 0.001 mg/ml) was 91 ± 32%, the activity at 10 µg/mL ([1]; A-431, serum free medium, 0.01 mg/ml) was 64 ± 19% and the activity at 100 µg/mL ([1]; A-431, serum free medium, 0.1 mg/ml) was 2 ± 2%. For the same compound, the “DNA synthesis [3H] Thy inc.” value ([1]; serum free medium, 0.001 mg/ml) was 6935 +/- 2432 dpm, the “DNA synthesis [3H] Thy inc.” value ([1]; serum free medium, 0.01 mg/ml) was 4885 +/- 1480 dpm and the “DNA synthesis [3H] Thy inc.” value ([1]; serum free medium, 0.1 mg/ml) was 134 +/- 129 dpm. For the same compound, the antiviral activity [2] was “no activity”, the “lower bracket dose (LBD)” value (mice C57B1/6; [5]) was 45 mg/kg and the single dose toxicity (mice C57B1/6; [5]) was 5 mg/kg. The “upper bracket dose (UBD)” value (mice C57B1/6; [5]) was 125 mg/kg, the basophiles (mice C57B1/6; fourth day after application) was “significant increase” and the eosinophiles (mice C57B1/6; fourth day after application) was “significant increase”. For the same compound, the lymphocytes (mice C57B1/6; fourth day after application) was “significant decrease”, the neutrophils (mice C57B1/6; fourth day after application) was “significant increase” and the “behavior and appearance of treated mice” value (mice C57B1/6; observation period) was “no changes”. For the same compound, the antiviral activity (herpes simplex virus) was “no activity”, the “Minimum inhibitory concentration (MIC)” value (Staphylococcus aureus) was greater than 0.5% and the immunomodulation activity (Candida albicans; 10 mg/kg and 1 mg/kg) was “moderate activity”. For the same compound, the “Death, days post-inoculum 0-1” value (Candida albicans; IP 0.1 × 3 mg/kg) was 3 #/10 Mice, the “Death, days post-inoculum 2-3” value (Candida albicans; IP 0.1 × 3 mg/kg) was 4 #/10 Mice and the “Death, days post-inoculum 4-6” value (Candida albicans; IP 0.1 × 3 mg/kg) was 1 #/10 Mice. The “Death, days post-inoculum 7-9” value (Candida albicans; IP 0.1 × 3 mg/kg) was 0 #/10 Mice, the “Response Inc. %” value (Candida albicans; IP 0.1 × 3 mg/kg) was 0% and the “Survivor No.” value (Candida albicans; IP 0.1 × 3 mg/kg) was 2. For the same compound, the “Death, days post-inoculum 0-1” value (Candida albicans; IP 1 × 3 mg/kg) was 2 #/10 Mice, the “Death, days post-inoculum 2-3” value (Candida albicans; IP 1 × 3 mg/kg) was 3 #/10 Mice and the “Death, days post-inoculum 4-6” value (Candida albicans; IP 1 × 3 mg/kg) was 1 #/10 Mice. For the same compound, the “Death, days post-inoculum 7-9” value (Candida albicans; IP 1 × 3 mg/kg) was 0 #/10 Mice, the “Response Inc. %” value (Candida albicans; IP 1 × 3 mg/kg) was 20% and the “Survivor No.” value (Candida albicans; IP 1 × 3 mg/kg) was 4. For the same compound, the “Death, days post-inoculum 0-1” value (Candida albicans; IP 10 × 3 mg/kg) was 0 #/10 Mice, the “Death, days post-inoculum 2-3” value (Candida albicans; IP 10 × 3 mg/kg) was 5 #/10 Mice and the “Death, days post-inoculum 4-6” value (Candida albicans; IP 10 × 3 mg/kg) was 1 #/10 Mice. The “Death, days post-inoculum 7-9” value (Candida albicans; IP 10 × 3 mg/kg) was 0 #/10 Mice, the “Response Inc. %” value (Candida albicans; IP 10 × 3 mg/kg) was 20% and the “Survivor No.” value (Candida albicans; IP 10 × 3 mg/kg) was 4. The “Death, days post-inoculum 0-1” value (Candida albicans; IP 100 × 3 mg/kg) was 6 #/10 Mice, the “Death, days post-inoculum 2-3” value (Candida albicans; IP 100 × 3 mg/kg) was 4 #/10 Mice and the “Death, days post-inoculum 4-6” value (Candida albicans; IP 100 × 3 mg/kg) was 0 #/10 Mice. For the same compound, the “Death, days post-inoculum 7-9” value (Candida albicans; IP 100 × 3 mg/kg) was 0 #/10 Mice, the “Response Inc. %” value (Candida albicans; IP 100 × 3 mg/kg) was 0% and the “Survivor No.” value (Candida albicans; IP 100 × 3 mg/kg) was 0. For the same compound, the “in vivo immunomodulation activity” value (Candida albicans; summary, no dose stated) was “moderate”, the activation at 0.001 µM ([3]; 0.001 uM) was 4% and the activation at 0.01 µM ([3]; 0.01 uM) was 8%. For the same compound, the activation at 0.1 µM ([3]; 0.1 uM) was 10%, the activation at 1 µM ([3]; 1 uM) was 9% and the activation at 10 µM ([3]; 10 uM) was 2%. It also gave an inhibition at 0.01 µM (P561ek Tyrosine Kinase; 0.01 μM) of 4%, an inhibition at 1 µM (P561ek Tyrosine Kinase; 1 μM) of 3% and an inhibition at 100 µM (P561ek Tyrosine Kinase; 100 μM) of 11%. The “Swelling Inh. %” value ([4]; IP 0.1 × 5 mg/kg) was 16%, the “Swelling (R -L)” value ([4]; IP 0.1 × 5 mg/kg) was 19.6 +/- 2.9 × 0.01 mm and the “ear thickness, Left Ear (No Oxa.)” value ([4]; IP 0.1 × 5 mg/kg) was 21.0 +/- 0.8 × 0.01 mm. The “ear thickness, Right Ear (24 hrs Oxa.)” value ([4]; IP 0.1 × 5 mg/kg) was 40.6 +/- 3.0 × 0.01 mm, the “Swelling Inh. %” value ([4]; IP 1 × 5 mg/kg) was 22% and the “Swelling (R -L)” value ([4]; IP 1 × 5 mg/kg) was 20.2 +/- 1.7 × 0.01 mm. The “ear thickness, Left Ear (No Oxa.)” value ([4]; IP 1 × 5 mg/kg) was 21.0 +/- 0.5 × 0.01 mm, the “ear thickness, Right Ear (24 hrs Oxa.)” value ([4]; IP 1 × 5 mg/kg) was 41.2 +/- 1.8 × 0.01 mm and the “Swelling Inh. %” value ([4]; IP 10 × 5 mg/kg) was 19%. The “Swelling (R -L)” value ([4]; IP 10 × 5 mg/kg) was 20.8 +/- 1.2 × 0.01 mm, the “ear thickness, Left Ear (No Oxa.)” value ([4]; IP 10 × 5 mg/kg) was 20.8 +/- 0.7 × 0.01 mm and the “ear thickness, Right Ear (24 hrs Oxa.)” value ([4]; IP 10 × 5 mg/kg) was 41.6 +/- 1.2 × 0.01 mm. The “Swelling Inh. %” value ([4]; IP 100 × 5 mg/kg) was 26%, the “Swelling (R -L)” value ([4]; IP 100 × 5 mg/kg) was 19.2 +/- 0.6 × 0.01 mm and the “ear thickness, Left Ear (No Oxa.)” value ([4]; IP 100 × 5 mg/kg) was 19.0 +/- 0.9 × 0.01 mm.
